Experimental data as given in PMC8308911, “Pharmacokinetic Study of Anti-osteoarthritic Compounds of a Standardized Fraction from Sphaeralcea Angustifolia” (Pharmaceuticals, 2021).
Where two headings read alike, the source gives them in different places.

Legend:
[1] = Pharmacokinetics after single intravenous administration of the SaTSS standardized fraction (plasma, HPLC, PKSolver); assay type: in vivo, ICR mice; settings: for AUC(0-t): read-out: AUC0-60 (converted); for Vd: read-out: Vss
Method: Analyses of HPLC were carried out in a Waters system (2695 Separation module) coupled to a diode array detector (2996) with a 190–600-nm detection range and operated by the Manager Millennium software system (Empower 1; Waters Corporation, Mexico City, Mexico). Separations were performed in a Spherisorb-ODS RP-18 column (250 × 4.6 mm, 5 µm; Waters Corporation, Mexico) employing a constant temperature of 25 °C during the analyses. Samples (20 µL) were eluted at a 1.0 mL/min flow rate with a gradient of mobile phases of (A) high-purity H2O with trifluoroacetic acid to 0.5% v/v (TFA, Sigma-Aldrich, Mexico City, Mexico) and (B) high purity CH3CN, and compounds were detected by monitoring absorbance for tomentin and scopoletin at λ = 343 nm and for sphaeralcic acid at λ = 357 nm. The mobile phase was started with water (100%) and was maintained for 1 min, then solvent B was gradually incorporated at 5% (at 2 min), at 30% (at 4 min), and at 50% (at 16 min). During the next 4 min, solvent B was increased to 100%, and this proportion was maintained for 5 min. Finally, the following 3 min were utilized to return the mobile phase to the initial condition. […] Identification of scopoletin and tomentin as well as sphaeralcic acid was performed by comparing their retention times (tomentin—11.288 min, scopoletin—11.349 min, coumarin mixure—11.457 min, and sphaeralcic acid—23.319 min) and absorbance spectra.
The mice were previously anesthetized with sodium pentobarbital (PiSA Agropecuaria), then retro-orbital sinus blood was obtained using heparinized capillaries and distributed to heparinized tubes, and tubes were centrifuged at 3500 g for 7 min. The plasma obtained was transferred to new tubes and stored at −4 °C until use.
Plasma samples were extracted with CH3CN and TFA (w/v) 20% (1:1), then vials were centrifuged at 14,000 g for 10 min and the supernatant was transferred to another vial and left to dry at room temperature. The precipitate was resuspended with 1 mL of high-purity methanol (Merk, México) and filtered through Teflon membrane (13 mm, 0.45 µm, Life Science). Each filtered sample was injected into the HPLC equipment, and the concentrations of tomentin and scopoletin at λ = 343 nm and of sphaeralcic acid at λ = 357 nm were obtained by comparison with pre-built calibration curves.
To evaluate the suitability of the assay for the pharmacokinetic studies, 400 mg/kg of the active SaTSS fraction standardized in a mixture of tomentin and scopoletin (7.1 mg/400 mg), and sphaeralcic acid (34.6 mg/400 mg) was administered orally or intravenously to the mice. The dose of SaTSS fraction was chosen based on previous research of active compounds, as the median efective dose of each compound and detectable concentrations of them in the fraction. For oral pharmacokinetics, ten animals were used in each group at different times (0, 1.3, 3.3, 5, 10, 20, 40, 60, 80, 120, and 240 min). For intravenous pharmacokinetics, three animals were used in each group at different times (2, 4, 6, 8, 10, 15, 20, 30, and 60 min) Subsequently, the mice were anesthetized, retro-orbital sinus blood was obtained, plasma samples were extracted with CH3CN and TFA (w/v) 20% (1:1), and the extracts were analyzed by HPLC for coumarin (tomentin and scopoletin) and sphaeralcic acid quantification. Pharmacokinetic calculations were performed using the observed data. All data were subsequently processed using the PKSolver add-in program for Microsoft Excel written in Visual Basic for Applications. All values obtained were expressed in mean ± Standard Deviation (SD). For the pharmacokinetic assay, the selection was made either from a one-compartment or from a two-compartment model, with the use of both the Akaike Information Criterion (AIC) and the Schwarz Criterion (SC). […]

[2] = design: method as in PMID 23384552; dose or concentration left out as unconfirmed; settings: feces and urine; ref [20]; cited from earlier work
[3] = ICR, mouse, plasma, iv, 400 mg/kg, intravenous 400 mg/kg SaTES fraction, One-Compartment Model
[4] = ICR, mouse, plasma, iv, 400 mg/kg, intravenous 400 mg/kg SaTES fraction, Two-Compartment Model
[5] = intravenous 400 mg/kg SaTES fraction, One-Compartment Model
[6] = intravenous 400 mg/kg SaTES fraction, Two-Compartment Model
[7] = intravenous 400 mg/kg SaTES fraction, Two-Compartment Model, 400 mg/kg
[8] = intravenous 400 mg/kg SaTES fraction, Two-Compartment Model, listed as Sphaeralcic Acid, 400 mg/kg
[9] = intravenous 400 mg/kg SaTES fraction, Two-Compartment Model, listed as sphaeralcic acid, 400 mg/kg

With `COc1c(C)cc2c(C(C)C)cc(C(=O)O)c(O)c2c1O` [Sphaeralcic acid, sphaeralcic acid] the AUC(0-inf) [1, 3] was 21300 ng·h/mL, the clearance [1, 3] was 27 mL/min/kg and the AUC(0-t) [1, 3] was 18300 ng·h/mL. For the same molecule, the C0 ([1]; ICR, mouse, plasma, iv, 400 mg/kg, intravenous 400 mg/kg SaTES fraction, One-Compartment Model, read-out: C0) was 41700 ng/mL, the MRT ([1]; ICR, mouse, plasma, iv, 400 mg/kg, intravenous 400 mg/kg SaTES fraction, One-Compartment Model, read-out: MRT (converted)) was 30.7 min and the Vd [1, 3] was 0.828 L/kg. It also gave a half-life ([1]; ICR, mouse, plasma, iv, 400 mg/kg, intravenous 400 mg/kg SaTES fraction, One-Compartment Model, read-out: t1/2) of 21.2 min, an AUC(0-inf) [1, 4] of 20400 ng·h/mL and a clearance [1, 4] of 28 mL/min/kg. It also gave an AUC(0-t) [1, 4] of 17700 ng·h/mL, a C0 ([1]; ICR, mouse, plasma, iv, 400 mg/kg, intravenous 400 mg/kg SaTES fraction, Two-Compartment Model, read-out: C0) of 58500 ng/mL and an MRT ([1]; ICR, mouse, plasma, iv, 400 mg/kg, intravenous 400 mg/kg SaTES fraction, Two-Compartment Model, read-out: MRT (converted)) of 29.3 min. For the same molecule, the Vd [1, 4] was 0.826 L/kg, the half-life ([1]; ICR, mouse, plasma, iv, 400 mg/kg, intravenous 400 mg/kg SaTES fraction, Two-Compartment Model, read-out: t1/2β) was 20.6 min and the concentration at 2 min ([1]; ICR, mouse, plasma, intravenous single dose 400 mg/kg SaTES fraction, 2.0 min, n = 3) was 40880 ± 210 ng/mL. The concentration at 4 min ([1]; ICR, mouse, plasma, intravenous single dose 400 mg/kg SaTES fraction, 4.0 min, n = 3) was 36280 ± 110 ng/mL, the concentration at 6 min ([1]; ICR, mouse, plasma, intravenous single dose 400 mg/kg SaTES fraction, 6.0 min, n = 3) was 33900 ± 240 ng/mL and the concentration at 8 min ([1]; ICR, mouse, plasma, intravenous single dose 400 mg/kg SaTES fraction, 8.0 min, n = 3) was 31800 ± 750 ng/mL. For the same molecule, the concentration at 10 min ([1]; ICR, mouse, plasma, intravenous single dose 400 mg/kg SaTES fraction, 10 min, n = 3) was 28700 ± 650 ng/mL, the concentration at 15 min ([1]; ICR, mouse, plasma, intravenous single dose 400 mg/kg SaTES fraction, 15 min, n = 3) was 24400 ± 330 ng/mL and the concentration at 20 min ([1]; ICR, mouse, plasma, intravenous single dose 400 mg/kg SaTES fraction, 20 min, n = 3) was 21200 ± 510 ng/mL. For the same molecule, the concentration at 30 min ([1]; ICR, mouse, plasma, intravenous single dose 400 mg/kg SaTES fraction, 30 min, n = 3) was 15800 ± 570 ng/mL, the concentration at 60 min ([1]; ICR, mouse, plasma, intravenous single dose 400 mg/kg SaTES fraction, 60 min, n = 3) was 3810 ± 90 ng/mL and the AUMC [1, 5] was 39,202.118 µg/mL*min^2. For the same molecule, the V [1, 5] was 0.828 (mg)/(µg/mL), the k10 [1, 5] was 0.032 min⁻¹ and the “AUC0-inf ∞” value ([1]; intravenous 400 mg/kg SaTES fraction, One-Compartment Model, 400 mg/kg) was 1278.978 µg·min/mL. The k10 [1, 6] was 0.048 min⁻¹, the k12 [1, 6] was 0.249 min⁻¹ and the k21 [1, 6] was 0.624 min⁻¹. The t1/2α [1, 6] was 0.781 min, the α [1, 6] was 0.88 min⁻¹ and the β [1, 6] was 0.034 min⁻¹. The “A (plasma concentration, central compartment)” value [1, 7] was 18.03 µg/mL, the “B (plasma concentration, peripheral compartment)” value [1, 7] was 40.46 µg/mL and the “A (plasma concentration, central compartment)” value [1, 8] was 18.027 µg/mL. For the same molecule, the AUMC [1, 8] was 35,880.304 µg/mL*min^2, the “B (plasma concentration, peripheral compartment)” value [1, 8] was 40.461 µg/mL and the C0 [1, 8] was 58489 ng/mL. For the same molecule, the MRT [1, 8] was 29.294 min, the V [1, 8] was 0.591 (mg)/(µg/mL) and the AUMC [1, 9] was 35,880.30 µg/mL*min^2. The V [1, 9] was 0.59 (mg)/(µg/mL) and the route of elimination [2] was “enterohepatic route”.
